Experimental data reported in patent publication US12636373B2, “Prodrugs with a tridentate self-immolative linker” (The General Hospital Corporation, priority 2018, dated 2026).
Where a SMILES comes first, the peptide text is derived from it. [ ]: non-standard residue; d: D form. The star is where a group is joined. Dolaproine = CO[C@@H]([C@@H]1CCCN1)[C@@H](C)C(=O)O; Dil = CC[C@H](C)[C@H](NC)[C@@H](CC(=O)O)OC; X2 = C[C@@H](N*)[C@@H](O)c1ccccc1; NMeV = CN[C@H](C(=O)O)C(C)C

Assays:
[1] = cited from earlier work
[2] = Nano-encapsulation (loading) efficiency, PLGA-PEG nanoprecipitation; type: physicochemical; settings: PLGA-PEG polymeric micellar formulation
Experimental: Initial experiments determined up to 1 mg of C16 prodrug could be used with the same polymer composition with no detectable loss in loading efficiency. For fluorescence-based imaging and flow-cytometric detection of NP uptake, PLGA-BODIPY630 was used instead of PLGA (described previously).^5 NP drug and Pd compound loadings were determined by absorbance (Nanodrop spectrophotometer), interpolation from a standard curve (R^2>0.99) after 1:10 dilution in DMF. Size and zeta potential measurements were performed using dynamic light scattering (Malvern Zetasizer). Prodrug loading efficiency is defined as the fraction of initial drug used in the nano-precipitation reaction that was successfully encapsulated and recovered in final NP product.

HT1080-EB3-mApple cells = test: EB3 microtubule comet imaging in live cells; type: cell-based, human; settings: individual treatment, 24 h; 1 μM MMAE or C16proMMAE, 35 μM Pd-NP
Experimental: Microtubule imaging. EB3 tracking was performed using an FV1000 confocal laser scanning microscope on a 37° C. heated stage, with XLUMPLFLN 20× (NA 1.0) or LUMFLN 60× (NA 1.1) water-immersion objectives, 1-10× digital zoom, 559-nm diode laser, and BA575-620 emission filter (all Olympus America). […] EB3 tracks were automatically identified and analyzed from time-lapse datasets using u-track software,^35 with tuning of maximum gap number and minimum frame number across datasets to account for differences in image quality; ambiguous and spurious tracks and artifacts were excluded according to requirements for directional continuity (directional persistence as net displacement/path length>0.8) and movement (value>3 pixels). Speed was determined between frames in each track and averaged for each track by computing the mean of the middle 80% of between-frame values. Track overlay figures were produced using a custom python script. Averaged track speeds excluded outliers falling more than 1.5× the interquartile range for each biological replicate.

SMILES: CC[C@H](C)[C@@H]([C@@H](CC(=O)N1CCC[C@H]1[C@H](OC)[C@@H](C)C(=O)N[C@H](C)[C@@H](O)c1ccccc1)OC)N(C)C(=O)[C@@H](NC(=O)[C@@H](NC)C(C)C)C(C)C [MMAE, monomethyl auristatin E] (H-[NMeV]V[Dil][Dolaproine]-X2)
- toxicity at equivalent doses [1]: severely toxic and above the maximum tolerated dose
- nano-encapsulation efficiency [2]: undetectable
- microtubule comets (prevalence and growth speed) (HT1080-EB3-mApple cells): complete elimination of visible comets
